In patent publication US9465025B2, “Stable neural stem cell lines” (Neuralstem, Inc., priority 1996, dated 2016):

Legend:
[1] = target: T1, endogenous full-length progesterone receptor (Homo sapiens, UniProt P06401); conditions: Wang et al. 1994; cited from earlier work
T1 sequence (P06401 1-933): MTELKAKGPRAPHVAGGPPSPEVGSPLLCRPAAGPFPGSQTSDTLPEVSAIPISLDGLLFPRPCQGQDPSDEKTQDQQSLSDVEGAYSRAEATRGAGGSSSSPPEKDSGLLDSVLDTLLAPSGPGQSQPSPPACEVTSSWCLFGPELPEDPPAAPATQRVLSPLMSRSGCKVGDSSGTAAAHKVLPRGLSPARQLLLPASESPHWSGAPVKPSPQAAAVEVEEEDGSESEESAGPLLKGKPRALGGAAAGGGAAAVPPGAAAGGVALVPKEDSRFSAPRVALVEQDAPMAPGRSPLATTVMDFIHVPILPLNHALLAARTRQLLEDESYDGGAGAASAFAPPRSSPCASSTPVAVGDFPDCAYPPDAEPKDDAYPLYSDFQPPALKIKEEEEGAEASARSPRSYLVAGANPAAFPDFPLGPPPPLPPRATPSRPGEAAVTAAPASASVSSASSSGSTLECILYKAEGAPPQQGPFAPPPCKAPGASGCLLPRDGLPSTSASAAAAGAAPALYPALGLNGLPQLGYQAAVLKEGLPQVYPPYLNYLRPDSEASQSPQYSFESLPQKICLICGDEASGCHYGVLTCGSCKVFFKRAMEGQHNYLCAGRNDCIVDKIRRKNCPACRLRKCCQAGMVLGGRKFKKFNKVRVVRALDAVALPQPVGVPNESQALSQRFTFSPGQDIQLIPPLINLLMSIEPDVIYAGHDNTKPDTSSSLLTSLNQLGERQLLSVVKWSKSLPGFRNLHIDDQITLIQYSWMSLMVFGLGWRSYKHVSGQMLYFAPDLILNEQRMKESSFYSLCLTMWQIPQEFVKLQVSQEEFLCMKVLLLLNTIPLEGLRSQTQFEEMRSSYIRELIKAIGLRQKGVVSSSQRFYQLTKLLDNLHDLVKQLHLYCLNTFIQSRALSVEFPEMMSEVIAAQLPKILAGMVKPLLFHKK

human CNS stem cells = experiment: Mitotic rate (24-hour BrdU incorporation) and doubling time of human CNS stem cells with growth factors; format: cell-based; conditions: N2 medium, factor supplied daily
Description: (§1) The doubling time for human CNS stem cells in N2 medium with bFGF as the sole mitogen is approximately 60 hours which is markedly slower than 24 hours for rat CNS stem cells under the identical culture conditions. This may be due to a species difference in certain cell-autonomous properties of the cells such as a difference in DNA replication rate or in other mitotic phases, G1 or G2, of the cell cycle. We investigated other factors to accelerate the mitotic rate of human CNS stem cells.
Many purified recombinant human growth factors were tested for the ability to enhance the mitogenic activity of bFGF. The mitotic rate of human CNS stem cells was assessed by measuring the proportion of the cells which have incorporated the mitotic label, bromodeoxyuridine (BrdU), during a 24-hour period. Each growth factor was supplied daily to the culture in addition to bFGF. Only the combination of bFGF+EGF and bFGF+TGFα (transforming growth factor-alpha) accelerated beyond the bFGF-induced mitotic rate of the human CNS stem cells. In both conditions, the doubling time of the cells […] 1.5 times to 40 hours over bFGF alone. Combination of bFGF and fetal bovine serum at 1% or at 10% also accelerated the BrdU-incorporation rate of bFGF-induced mitotic rate of CNS stem cells to a similar rate. • 2. Resistance of CNS Stem Cells Against Spontaneous Differentiation

rat CNS stem cells = experiment: Doubling time of rat CNS stem cells in N2 medium with bFGF; format: cell-based; conditions: bFGF as sole mitogen
Description: as §1

[2] = test system: MycER-expressing CNS stem cells; experiment: Growth of MycER-expressing human CNS stem cells in different mitogens; format: cell-based
Description: The same human CNS stem cell preparation was also subjected to MycER-retrovirus infection and grown in bFGF alone or in bFGF and EGF. […] As with the unmodified parent cells, the MycER cells also retained a 60 hour doubling time in bFGF alone. […] In the absence of MycER expression, the same three conditions yielded a similar pattern of growth, but with less stability.

Molecule | activation of full-length receptor [1] | doubling time (human CNS stem cells) | doubling time (rat CNS stem cells) | doubling time [2]
CC#C[C@]1(O)CC[C@H]2[C@@H]3CCC4=CC(=O)CCC4=C3[C@@H](c3ccc(N(C)C)cc3)C[C@@]21C [RU38486] | does not activate |  |  | 
bFGF: basic fibroblast growth factor, mitogen for CNS stem cells |  | approximately 60 hours | 24 h | 60 h
